The values that follow come from patent US11771708B2, “Pharmaceutical carriers capable of pH dependent reconstitution and methods for making and using same” (Greenwood Brands, LLC, priority 2020, dated 2023).

Structures are written as SMILES.

This data set is described as follows: carrier reorganization in simulated gastric fluid and aspirin partitioning (Examples 2 and 3). It is filed as physicochemical. Here is the method: 5 grams of the composition is added to a beaker equipped with a magnetic stirrer and 50 mL of simulated gastric fluid is added with stirring. […] To this material, a 1 N solution of sodium hydroxide is added slowly to bring the pH up to about pH 7 with stirring. Raising the pH to pH 7 gives rise to a change in the carrier in a high pH environment. To this material, a 1 N solution of hydrochloride acid is added slowly until the pH is lowered to the pH of the simulated gastric fluid. It is expected that the carrier will reorganize. […] Thus, a carrier comprising a sufficient amount of a fatty acid in a triglyceride is capable of reorganization and absorption of a BAI from the low pH fluid, here simulated gastric fluid. 5 grams of the composition is added to a beaker equipped with a magnetic stirrer and 50 mL of simulated gastric fluid is added with stirring. […] To this material, a 1 N solution of sodium hydroxide is added slowly to bring the pH up to about pH 7 with stirring showing the change in the carrier in a high pH environment and the release of aspirin into the high pH environment. To this material, a 1 N solution of hydrochloride acid is added slowly until the pH is lowered to the pH of the simulated gastric fluid. […]

Take `CC(=O)Oc1ccccc1C(=O)O` [aspirin]: the “aspirin partitioning between reorganized carrier and simulated gastric fluid” value by setting is: (Example 2: 10 g powdered aspirin added after oleic acid/soybean oil carrier was cycled low pH - pH 7 - low pH) “partitions between the reorganized carrier and the simulated gastric fluid”; (Example 3: carrier (oleic acid/soybean oil) and aspirin 1:1, cycled low pH - pH 7 - low pH) “partitions between the reorganized carrier and the simulated gastric fluid”.
